Tests used:
[1] = system: HCT-116 human colorectal carcinoma cells; assay: MTT cytotoxicity, 72 h; assay type: cell-based; conditions: MTT, 72 h, platinum complexes and decitabine
Procedure: (§1) Cytotoxic activity of the compounds tested in the present work was screened on the panel of malignant and nonmalignant cell lines using the colorimetric MTT assay and 72 h of drug incubation period.
(§2) Cell death was evaluated using a system based on the tetrazolium compound MTT [3-(4,5-dimethyl-2-thiazolyl)-2,5-diphenyl-2H-tetrazolium bromide]. The cells were seeded in 96-well tissue culture plates at a density of 10^4 A2780cisR, LNCaP, HSF cells/well, 3 × 10^3 CHO-K1 or 4 × 10^3 MCF7, HCT-116 and MRC5 pd30 cells/well in 100 μL of medium. After overnight incubation (16 h), the cells were treated with the compounds in a final volume of 200 μL/well. After additional 72 h, 10 μL of a freshly diluted MTT solution (2.5 mg mL^−1) was added to each well, and the plate was incubated at 37 °C in a humidified 5% CO2 atmosphere for 4 h. At the end of the incubation period, the medium was removed, and the formazan product was dissolved in 100 μL of DMSO. The cell viability was evaluated by measurement of the absorbance at 570 nm, using an Absorbance Reader SUNRISE TECAN SCHOELLER. IC50 values were calculated from curves constructed by plotting cell survival (%) versus drug concentration (μM). All experiments were made in triplicate. The reading values were converted to the percentage of control (% cell survival). Cytotoxic effects were expressed as IC50.

[2] = system: DNA methylation in HCT-116 cells; assay: DNA methylation analysis (Imprint methylated DNA quantification kit); assay type: cell-based, human; conditions: HCT-116, 1 µM
Procedure: Human colon adenocarcinoma cells HCT-116 were chosen as the model cellular system suitable for DNA methylation analysis because: (i) this human colorectal cancer cell line has been used as a prototypic model for analyses of the genetic basis of cancer, and the role of epigenetic changes in tumorigenesis; (ii) they have a propensity to both global DNA hypomethylation and to silence genes through promoter focal hypermethylation, [21]. HCT-116 cells were treated with the compounds at the concentrations indicated in Fig. 4A for 24 or 72 h and DNA was isolated for the complete methylation analysis as described in the experimental section. Decitabine (5-aza-2′-deoxycytidine), a hypomethylating agent which hypomethylates DNA by inhibiting DNMT, was used in these experiments as a […]. The IC50 values found for this agent in HCT-116 cells (the drug-treatment period was 72 h) was (7.5 ± 0.3) µM (Table 1).
Figure 4 Analysis of DNA methylation. (A) DNA was isolated from HCT-116 cells after the exposure to the agents at the concentrations indicated in the graph for 24 or 72 h. The levels of DNA methylation in the control was taken as 100%. The bars represent mean values from three independent experiments each performed in octuplicate. The error bars are the SDs. (B) DNMT activity in colon carcinoma cells HCT-116 treated for 24 h with the compounds tested in the present work. The DNMT activity in the control, untreated cells was taken as 100%. Error bars are the SDs and the stars at the top of bars denote a significant difference from the control with (*p < 0.05; **p < […]), calculated using […] student’s t-test. The bars represent mean values from three independent experiments, each performed in quadruplicate.
Human colon carcinoma cells (HCT-116) were seeded at the density 1.5 × 10^6 cells/dish. […] The DNA content in each sample was determined by UV spectrophotometry. DNA (200 ng) from the samples was loaded to the Imprint methylated DNA quantification kit (Sigma-Aldrich, USA). The level of methylated DNA was proportional to the absorbance measured at 450 nm.

[3] = system: MRC-5 (PD30) human fetal lung fibroblasts; assay: MTT cytotoxicity, 72 h; assay type: cell-based; conditions: platinum complexes
Procedure: as §1, §2

[4] = system: CHO-K1 Chinese hamster ovary cells; assay: MTT cytotoxicity, 72 h; assay type: cell-based; conditions: platinum complexes
Procedure: as §1, §2

[5] = system: LNCaP human prostate adenocarcinoma cells; assay: MTT cytotoxicity, 72 h; assay type: cell-based; conditions: platinum complexes
Procedure: as §1, §2

[6] = system: MCF-7 human breast cancer cells; assay: MTT cytotoxicity, 72 h; assay type: cell-based; conditions: platinum complexes
Procedure: as §1, §2

[7] = system: HSF human primary skin fibroblasts; assay: MTT cytotoxicity, 72 h; assay type: cell-based; conditions: platinum complexes
Procedure: as §1, §2

[8] = system: A2780cisR human ovarian carcinoma cells; assay: MTT cytotoxicity, 72 h; assay type: cell-based
Procedure: as §1, §2

HCT-116 cells [9] = assay: Cellular platinum accumulation/distribution by ICP-MS; assay type: cell-based, human; conditions: HCT-116, 24 h, 0.35 µM
A2780 cells = assay: as above; assay type: cell-based, human; conditions: 0.35 µM
Procedure: (§3) Cellular concentrations of platinum were determined by inductively coupled plasma mass spectrometry (ICP-MS) after 24 h of exposure to the complexes at the concentration of 0.35 µM.
(§4) Cellular uptake studies were also carried out to measure the accumulation of platinum species in cytosol and nucleus. […] The platinum levels in each pool were measured by ICP-MS. The extent of accumulation of both OA conjugated Pt(IV) prodrugs into the cytosol and nucleus fractions was markedly higher than that of cisplatin or Pt(IV)diAc.
(§5) The cells were seeded in 150 cm^2 culture flasks at a density 1 × 10^7 cells/flask (67 000 cells/cm^2). After 48-h incubation, the cells were treated with the compounds (0.35 μM) for 24 h. The attached cells were washed twice with PBS (4 °C). Seventy-five percent of cells were used for analysis of platinum bound to DNA, remaining 25% were used for estimations of cellular accumulation of platinum. Cell pellets were digested by a high-pressure microwave digestion system (MARS5, CEM) with HCl to give a fully homogenized solution, and final platinum content was determined by ICP-MS. The analysis with the aid of ICP-MS was performed using Agilent 7500 (Agilent, Japan) or Thermo Optek X Series.
(§6) A2780 cells were seeded in 100 mm tissue culture dishes (3 × 10^6 cells) and grown for 48 h to 80–90% confluence. Cells were harvested after 24 h of treatment. Concretely, the dishes were washed two times with ice-cold PBS and the cells scraped into tubes and centrifuged for 10 min at 0 °C (200 g). The pellets were resuspended in the lysis buffer [Tris·HCl (10 mM, pH 8.0), KCl (60 mM), EDTA (1.2 mM), DTT (1 mM), phenylmethanesulfonyl fluoride (PMSF, 0.1 mM), NP-40 (0.04%)] for 10 min on ice and centrifuged for 4 min at 0 °C (800 g). Cytosolic fraction was separated for platinum ICP-MS analysis, and protein concentration was determined by Bradford assay. The pellets were rinsed with the above lysis buffer without PMSF and NP-40 and centrifuged for another 4 min at 0 °C (300 g). The pellets were resuspended in 50 µL nuclear extraction buffer [Tris·HCl (20 mM, pH 8.0), NaCl (420 mM), MgCl2 (0.7 mM), EDTA (0.25 mM), glycerol (25%)] and incubated for 30 min at 4 °C, continuously mixed on end-over-end roller, and then centrifuged for 15 min at 0 °C (13000 g). Protein concentration in nuclear extracts was determined by the Bradford assay, and stored at −80 °C until analysis.

HCT-116 cells [10] = assay: as above; assay type: cell-based, human; conditions: HCT-116, 24 h exposure, 0.35 µM
Procedure: as §3, §4, §5, §6

[11] = system: A2780 human ovarian carcinoma cells; assay: MTT cytotoxicity, 72 h; assay type: cell-based; conditions: MTT, 72 h, platinum complexes
PNT1a = assay: MTT cytotoxicity, 72 h; assay type: cell-based; conditions: platinum complexes
DNA from HCT-116 cells = assay: Platinum content on DNA isolated from treated cells (ICP-MS); assay type: cell-based, human; conditions: HCT-116, 24 h, 0.35 µM
Procedure: (§7) As for antitumor cisplatin and its direct derivatives, DNA is believed to be the target also for Pt(IV) prodrugs examined in the present work.
(§8) The cells were seeded in 150 cm^2 culture flasks at a density 1 × 10^7 cells/flask (67 000 cells/cm^2). After 48-h incubation, the cells were treated with the compounds (0.35 μM) for 24 h. The attached cells were washed twice with PBS (4 °C). As mentioned in the preceding paragraph, 75% of cells were used for analysis of platinum bound to DNA, remaining 25% were used for estimations of cellular accumulation of platinum. Cells were then lysed in DNAzol (DNAzol® genomic DNA isolation reagent, MRC) supplemented with RNase A (100 μg mL^−1). The genomic DNA was precipitated from the lysate with ethanol, dried and resuspended in water. The DNA content in each sample was determined by UV spectrophotometry. The DNA samples were digested in the presence of hydrochloric acid (11 M) using high-pressure microwave mineralization system (MARS5, CEM). The platinum content was determined by ICP-MS. Experiments were performed in triplicate and the values are the means ± SD.

DNA from A2780 cells = assay: as above; assay type: cell-based, human; conditions: A2780, 24 h, 0.35 µM
Procedure: as §7, §8

[12] = parameters: method as in PMID 25888926; conditions: valproato complexes; cited from earlier work
[13] = system: Lewis lung carcinoma (LLC); assay: In vivo antitumor activity in Lewis lung carcinoma; conditions: LLC in C57BL mice; for Average tumor weight (mean ± SD): 20 mg kg^−1 daily orally day 7–14, day 15; for Inhibition of tumor growth: 20 mg kg^−1 daily orally day 7–14, day 15, referred to control animals
Procedure: Xenograft LLC tumors were grown in C57BL mice that were subsequently treated with […] of either Pt(IV) complex. Pt(IV) prodrugs were administered by oral gavage by taking advantage of their excellent stability, enabling in vivo oral formulation making platinum therapy safer lessening side effects and partially overcoming resistance to platinum(II) drugs, [35]. The schedule of Pt(IV) prodrug administration in vivo was initially determined by assessing the total dose that could be injected without undue toxicity in nontumor-bearing C57BL mice. From day 7 after tumor inoculation, when tumors became visible, tumor-bearing mice received daily doses of the Pt(IV) derivatives (20 mg kg^−1, by oral gavage).
The LLC cell line was purchased from ECACC, United Kingdom. The LLC cell line was maintained in DMEM (Euroclone) supplemented with 10% heat-inactivated fetal bovine serum (FBS; Euroclone), 10 mM L-glutamine, 100 U mL^−1 penicillin, and 100 μg mL^−1 streptomycin in a 5% CO2 air incubator at 37 °C. The LLC was implanted intramuscularly (im) as a 2 × 10^6 cell inoculum into the right hind leg of 8-week old male and female C57BL mice (24 ± 3 g body weight). […] At day 15, animals were sacrificed, the legs were amputated at the proximal end of the femur, and the inhibition of tumor growth was determined according to the difference in weight of the tumor-bearing leg, and the healthy leg of the animals expressed as a percentage referred to the control animals. Body weight was measured every two days and was taken as a parameter for systemic toxicity. All the values are the means ± SD of not less than three measurements.

[14] = rough estimate from Tables 2 and 3

Nc1ncn([C@H]2C[C@H](O)[C@@H](CO)O2)c(=O)n1 [Decitabine, 5-aza-2′-deoxycytidine, reference compound]
IC50 ([1]; Homo sapiens, HCT-116): 7500 ± 300 nM | Change of DNA methylation [2]: considerably lowered level of DNA methylation

CCCCCCCC(=O)[O][Pt]([NH2])([NH2])([Cl])([Cl])[O]C(C)=O [Pt(IV)AcOA, cis, cis, trans-[Pt(IV)(NH3)2Cl2AcOA]]
IC50 [3]: 409 ± 215 nM | IC50 [4]: 1100 ± 200 nM | IC50 [5]: 270 ± 100 nM | IC50 [6]: 500 ± 40 nM | IC50 [7]: 957 ± 19 nM | RF, resistance factor ([8]; IC50 (resistant, A2780cisR)/IC50 (sensitive, A2780)): 1.1 | IC50 ([8]; MTT, 72 h, platinum complexes): 370 ± 60 nM | IC50 [1]: 930 ± 20 nM | Platinum in cytosol (HCT-116 cells [9]): 48 ± 2 pg Pt/µg protein | Platinum in nucleus (HCT-116 cells [9]): 55 ± 7 pg Pt/µg protein | Platinum in cytosol (A2780 cells; A2780, 24 h): 28 ± 4 pg Pt/µg protein | Platinum in nucleus (A2780 cells; A2780, 24 h): 27 ± 4 pg Pt/µg protein | Total cellular platinum accumulation (A2780 cells; A2780, 24 h exposure): 4.0 ± 0.9 ng Pt/10^6 cells | Total cellular platinum accumulation (HCT-116 cells [10]): 6.0 ± 0.9 ng Pt/10^6 cells | IC50 [11]: 350 ± 50 nM | IC50 (PNT1a): 150 ± 3 nM | Platinum content on DNA (DNA from HCT-116 cells): 19.8 ± 3.6 pg Pt/µg DNA | Platinum on DNA, % from the total intracellular Pt amount (DNA from HCT-116 cells; [14]): 4.8% | Platinum content on DNA (DNA from A2780 cells): 8.0 ± 1.4 pg Pt/µg DNA | Platinum on DNA, % from the total intracellular Pt amount (DNA from A2780 cells; [14]): 5.0%

CCCC(CCC)C(=O)[O][Pt]([NH2])([NH2])([Cl])([Cl])[O]C(C)=O [Pt(IV)AcVPA, reference compound]
logP [12]: 0.17

CCCC(=O)[O][Pt]([NH2])([NH2])([Cl])([Cl])[O]C(=O)CCC [Pt(IV)diBA, cis, cis, trans-[Pt(IV)(NH3)2Cl2(BA)2]]
Average tumor weight (mean ± SD) [13]: 0.109 ± 0.05 g | Inhibition of tumor growth [13]: 80%

CCCCCC(=O)[O][Pt]([NH2])([NH2])([Cl])([Cl])[O]C(=O)CCCCC [Pt(IV)diHA, cis, cis, trans-[Pt(IV)(NH3)2Cl2(HA)2]]
Average tumor weight (mean ± SD) [13]: 0.088 ± 0.06 g | Inhibition of tumor growth [13]: 84%
